Results taken from ChEMBL document CHEMBL1146589, “Potential cncer chemopreventive flavonoids from the stems of Tephrosia toxicaria” (J Nat Prod, 2003).

Key:
[1] = Inhibition of mouse Hepa-1c1c7 cells by MTT assay; assay type: cell-based
[2] = tissue or blood; conditions: Mus musculus, Mammary gland, read-out: INH
Description: Inhibition of 7,12-dimethylbenz[a]anthracene-induced preneoplastic lesions in a mouse mammary gland culture at 1 ug/mL

[3] = Chemoprevention index, ratio of IC50 for mouse Hepa-1c1c7 cells to drug level required to double NADPH:quinone reductase activity in mouse Hepa-1c1c7 cells; assay type: functional
[4] = Inhibition of 7,12-dimethylbenz[a]anthracene-induced preneoplastic lesions in a mouse mammary gland culture at 10 ug/mL; assay type: functional

SMILES | IC50 [1] | inhibition at 1 µg/mL [2] | Ratio [3] | inhibition at 10 µg/mL [4]
C[S+]([O-])CCCCN=C=S (stereo not drawn) [SULFORAPHANE] | 11 µM | 83.7% | 25 | –
O=C(/C=C/c1ccc(O)cc1)c1ccc(O)cc1O [ISOLIQUIRITIGENIN] | 36.3 µM | – | 10.1 | 76%
C=C(C)[C@H]1Cc2c(cc(O)c3c2O[C@@H]2COc4cc(OC)c(OC)cc4[C@@H]2C3=O)O1 [SUMATROL] | > 47 µM | – | – | 49.9%
COc1cc2c(cc1OC)[C@]1(O)C(=O)c3c(O)cc4c(c3O[C@@H]1CO2)C(OC)C(O)C(C)(C)O4 (stereo partly drawn) | 9.1 µM | – | 1.4 | –
COc1cc(-c2cc(=O)c3c(O)cc(O)cc3o2)ccc1O [CHRYSOERIOL] | 36 µM | – | 3.1 | –
COc1cc2c(cc1OC)[C@]1(O)C(=O)c3c(O)cc4c(c3O[C@@H]1CO2)C=CC(C)(C)O4 | > 47 µM | – | – | 60%
COc1cc2c(cc1OC)-c1c(oc3c4c(cc(O)c3c1=O)OC(C)(C)C=C4)CO2 | > 47 µM | – | – | 19%
COc1cc2c(cc1OC)[C@@H]1C(=O)c3c(O)cc4c(c3O[C@@H]1CO2)C=CC(C)(C)O4 [TOXICAROL] | > 47 µM | – | – | 80%
O=c1c(-c2ccc(O)cc2)coc2cc(O)cc(O)c12 [GENISTEIN] | 45.2 µM | – | 2 | –
COc1cc(O)c2c(c1/C=C/C(C)=O)O[C@H](c1ccccc1)CC2=O | > 14.9 µM | – | >1.4 | 0%
